{"source": "the NIST ThermoML archive (doi:10.1021/je100198g)", "details": "297.9 K, Liquid mixture 1, Pendant drop shape", "note": "Numbers after ± are expanded uncertainties.", "data": [{"smiles": "O=C=O", "note": "[carbon dioxide] + O", "values": [{"measurement": "interfacial tension", "setting": "7020 kPa", "result": "31.9 ± 0.7", "unit": "mN/m"}, {"measurement": "interfacial tension", "setting": "8020 kPa", "result": "31.9 ± 0.7", "unit": "mN/m"}, {"measurement": "interfacial tension", "setting": "10010 kPa", "result": "31.8 ± 0.7", "unit": "mN/m"}, {"measurement": "interfacial tension", "setting": "14990 kPa", "result": "30.6 ± 0.7", "unit": "mN/m"}, {"measurement": "interfacial tension", "setting": "19990 kPa", "result": "30 ± 0.7", "unit": "mN/m"}]}]}
